The values below come from patent publication US9458137B2, “Substituted indol-5-ol derivatives and their therapeutical applications” (NantBioScience, Inc., priority 2012, dated 2016).

Data set [1] has as its system Pane-1 model of pancreatic carcinoma. As to the kind of experiment: Panc-1 pancreatic carcinoma xenograft. It counts as in vivo. The settings on record: with or without Abraxane. The source says: FIGS. 48 and 49 depict the results of various concentrations of NTW-3456, with or without Abraxane on a Pane-1 model of pancreatic carcinoma.
Data set [2] relates to human MIAPaCa-2 pancreatic carcinoma xenograft. As to the kind of experiment: MIAPaCa-2 pancreatic carcinoma xenograft. It counts as in vivo, athymic nude-Faxn1 mice. The protocol:
The objective of the third study was to evaluate antitumor activities of novel multiple-kinase inhibitor NTW-3475 in human MIAPaCa-2 pancreatic carcinoma xenograft in athymic nude-Faxn1 mice.
Four animals were randomly assigned to study groups. Each animal was weighed, and then injected subcutaneously in the left and right flank area with 0.1 ml of 5.0×10^7 MIAPaCa-2 cells per mL.
Each test or control animal was on a 5-day on, two-day off for two cycles treatment schedule with negative control vehicle, positive control Abraxane at 20 mg/kg or 25, 50 mg/kg of NTW-3475. Tumor growth was measured with a digital hand held caliper twice weekly (once tumor emerges) prior to the first dosing and then two to three times weekly until euthanized.
FIGS. 42-44 depict the results of various concentrations of NTW-3456 on a nude mouse/xenograft the MIAPaCa-2 model of pancreatic carcinoma.
FIGS. 45 and 46 depict the results of various concentrations of NTW-3456, with or without Abraxane on a MiaPaCa-2 model of pancreatic carcinoma.

Data set [3] has as its target abl T315I mutant (Homo sapiens, UniProt P00519, T315I). As to the kind of experiment: kinase activity in abl mutants. The format is biochemical. The source says: The first study was designed to assess the effect of NTW-3456 on kinase activity. Activity of NTW-3456 for a wide range of kinases and is shown FIGS. 22-24, including mutant kinases thought to play a large role in neoplastic transformation (FIGS. 23 and 24). In addition, NTW-3456 inhibited kinase activity in abl mutants for which no prior inhibitors have been FDA approved. In particular, NTW-3456 inhibits the 2 T315I mutant for which no kinase inhibitor had been known prior to NTW-3456.

Data set [4] has as its system human K562 chronic myelogenous leukemia (CML) xenograft. In words: K562 CML xenograft model. The following applies: various concentrations; scid mouse, K562 cells. It counts as in vivo, SCID mice. The method, then: The objective of the second study was to evaluate antitumor activities of novel multiple-kinase inhibitor NTW-3475 in human K562 chronic myelogenous leukemia (CML) xenograft model in female SCID mice.
Four to six animals were randomly assigned to study groups. Each animal was weighed, and then injected subcutaneously in the left and right flank area with 0.1 ml of 8.0×10^7 K562 cells per mL.
Each test or control animal was on a 5-day on, two-day off for two cycles treatment schedule. Tumor growth was measured with a digital hand held caliper twice weekly (once tumor emerges) prior to the first dosing and then two to three times weekly until euthanized. Animals were weighed prior to tumor cell injection, prior to dosing, two to three times weekly with tumor growth measurements, and prior to euthanasia.
FIGS. 34 and 35 depict the results of various concentrations of NTW-3456 on a scid mouse/xenograft model of CML using K562 cells.

The test system of data set [5] is human MV411 human acute myelogenous leukemia (AML) xenograft. The format is in vivo, SCID mice. The following applies: various concentrations; scid mouse, MV411 cells. The method, then:
The objective of the first study was to evaluate antitumor activities of the novel multiple-kinase inhibitor NTW-3475 against human MV411 human acute myelogenous leukemia (AML) xenograft model in female SCID mice.
Four or six animals were randomly assigned to each study group. Each animal was injected subcutaneously in the left and right flank area with 0.1 ml of 1.0×10^8 MV411 cells per mL
Each test or control animal was placed on a 5-day on, two-day off for two cycles of vehicle negative control or 25, 50 mg/kg of NTW-3475. Tumor growth was measured with a digital hand held caliper twice weekly (once tumor emerges) prior to the first dosing and then two to three times weekly until euthanized. Animals were weighed prior to tumor cell injection, prior to dosing, two to three times weekly with tumor growth measurements, and prior to euthanasia.
FIGS. 27-32 depict the results of various concentrations of NTW-3456 on tumor growth in scid mouse/xenograft model of AML using MV411 cells. […] This invention is characterized as it is here was a correlation between the inhibition of the pFLT3 kinase and growth control.

In data set [6] the test system is AN3 human endometrial carcinoma carcinoma xenograft. As to the kind of experiment: AN3 endometrial carcinoma xenograft. It counts as in vivo, nude mouse. The following applies: various concentrations; AN3 nude mouse model. From the text:
(§1) This example assesses NTW-3475's anti-tumor activity using a scid mouse xenograft models for leukemias and nude mouse xenograft models of endometrial, pancreatic and thyroid carcinomas. NTW-3475 combination therapy was also studied in murine xenografts.
FIGS. 39-41 depict the results of various concentrations of NTW-3456 on the AN3 nude mouse/xenograft model of endometrial carcinoma.

Data set [7] relates to TT human Thyroid carcinoma xenograft. As to the kind of experiment: TT thyroid carcinoma xenograft. The format is in vivo, nude mouse. The following applies: various concentrations; nude mouse, TT cell model.
Text: as §1
FIGS. 36-38 depict the results of various concentrations of NTW-3456 on a nude mouse/xenograft the TT cell model of thyroid carcinoma.

Data set [8] relates to human tumor cell lines of the cancer screening panel. In words: in vitro antiproliferation, NCI 60 cancer cell line panel (SRB). The format is cell-based. The settings on record: 48 h. The protocol:
NTW-3475 was also tested for its antiproliferative potential using cell lines from the NCI 60 cancer cell line panel.
The human tumor cell lines of the cancer screening panel are grown in RPMI 1640 medium containing 5% fetal bovine serum and 2 mM L-glutamine. For a typical screening experiment, cells are inoculated into 96 well microtiter plates in 100 μL at plating densities ranging from 5,000 to 40,000 cells/well depending on the doubling time of individual cell lines. After cell inoculation, the microtiter plates are incubated at 37° C., 5% CO2, 95% air and 100% relative humidity for 24 h prior to addition of experimental drugs. […]
Following drug addition, the plates are incubated for an additional 48 h at 37° C., 5% CO2, 95% air, and 100% relative humidity. […] Bound stain is subsequently solubilized with 10 mM trizma base, and the absorbance is read on an automated plate reader at a wavelength of 515 nm. […] Using the seven absorbance measurements [time zero, (Tz), control growth, (C), and test growth in the presence of drug at the five concentration levels (Ti)], the percentage growth is calculated at each of the drug concentrations levels. Percentage growth inhibition is calculated as: [(Ti-Tz)/(C-Tz)]×100 for concentrations for which Ti>/=Tz [(Ti-Tz)/Tz]×100 for concentrations for which Ti<Tz.
Three dose response parameters are calculated for each experimental agent. […]

Data set [9] can be described thus: plasma concentration after oral administration (LCMS). The format is in vivo, SCID mice. The following applies: 24 hour after single oral 50 mg/kg; mice with MV4-11 tumor xenografts. The method, then:
(§2) The mice carrying the established MV4-11 tumor xenografts (tumor volume around 150 mm^3) were given an oral dose of 50 mg/kg NTW-3456. At 0, 1, 2, 8, 16, 24 hours after dosing, three were euthanized. The blood samples were collected and plasma was prepared with centrifuge for LCMS assay. And the tumors were harvested, homogenized in lysis buffer, immunoprecipitated with anti-FLT3 antibody FIG. 33.
(§3) The curve (solid dot) is the plot of plasma concentration-time profiles of NTW-3456 after oral administration of 50 mg/kg.

Data set [10] concerns FLT3 phosphorylation (pFLT3) of MV4-11 tumors. In words: FLT3 phosphorylation in MV4-11 tumor xenografts. It counts as in vivo, SCID mice. The settings on record: 24 hour after single oral 50 mg/kg. The method, then: as §2, §3
The subject of data set [11] is abl kinase. As to the kind of experiment: abl kinase inhibition assay. The format is biochemical.

Regarding `C/C=C/c1cc(Nc2cc(N3CCN(C)CC3)nc(Oc3cc(F)c4[nH]c(C)cc4c3F)n2)n[nH]1` [NTW-3456], the anti-tumor activity result in data set [1] is “significant anti-tumor activity, especially when used in combination with Abraxane”; in data set [2] (various concentrations, single agent, nude mouse) it was “some anti-tumor activity”; in data set [2] (with or without Abraxane), “significant anti-tumor activity, especially when used in combination with Abraxane”; in data set [4], “significant anti-tumor activity, especially at higher doses”; in data set [5] it was “significant anti-tumor activity, especially at higher doses”; in [6], “significant anti-tumor activity, especially at higher doses”. The anti-tumor activity result in data set [7] is on record as “significant anti-tumor activity, especially at higher doses”. For the same compound, the “inhibition of kinase activity” value in [3] is on record as “inhibits”. In addition, in data set [8], the antiproliferative activity entry is “seen against AML, CML, thyroid, enodmetrial, gastric, breast, and some pancreatic carcinoma cell lines”. This compound gave a plasma concentration in data set [9] of 7 nM. For the same compound, in data set [10], the “inhibition of FLT3 phosphorylation of MV4-11 tumor” value is given as “more than 60%”.
For the compound `Cc1cc2c(F)c(Oc3nc(Nc4cc(C5CC5)[nH]n4)cc(N4CCOCC4)n3)ccc2[nH]1` [Example 13], in data set [11], the “% Inhibition @1 μM Abl” value was determined as 112%.
Still for that read-out and setting: to `C/C=C/c1cc(Nc2cc(N3CCN(C)CC3)nc(Oc3ccc4[nH]c(C)cc4c3F)n2)n[nH]1` [Example 53] belongs 109%.
